According to patent publication US20110257211A1, “Small-Molecule Choline Kinase Inhibitors as Anti-Cancer Therapeutics” (ADVANCED CANCER THERAPEUTICS, LLC, priority 2010, published 2011):
Where two headings read alike, the source gives them in different places. Values belong to the molecule of their own block, whether it stands above or below them.

Assays:
[1] = target: T1, Choline Kinase α (CKα) (Homo sapiens, UniProt P35790); assay: Inhibition of Choline Kinase α, kinase activity assay; format: biochemical; details: recombinant CKα expressed in E. coli
T1 construct: GST; made in house; host or cells: E. coli BL21(DE3)
T1 sequence (P35790 whole entry): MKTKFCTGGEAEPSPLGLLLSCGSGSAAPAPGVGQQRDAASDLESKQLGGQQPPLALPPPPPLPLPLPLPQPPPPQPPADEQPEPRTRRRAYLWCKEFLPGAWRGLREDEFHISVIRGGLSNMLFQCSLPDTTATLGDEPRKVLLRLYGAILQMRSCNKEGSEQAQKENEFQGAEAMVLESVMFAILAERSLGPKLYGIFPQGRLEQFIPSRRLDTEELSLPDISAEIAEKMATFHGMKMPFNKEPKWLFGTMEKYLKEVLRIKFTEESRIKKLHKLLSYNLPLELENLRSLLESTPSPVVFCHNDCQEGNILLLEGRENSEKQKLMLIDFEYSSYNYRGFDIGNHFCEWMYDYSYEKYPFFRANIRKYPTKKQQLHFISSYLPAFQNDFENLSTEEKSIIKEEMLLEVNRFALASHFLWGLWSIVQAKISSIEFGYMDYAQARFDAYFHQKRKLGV
Method: CKα was prepared by expression in E. coli (Bl21(DE3)) and purified by GST column and column chromatography. […] The recombinant protein was pure and active as determined by the results of a kinase activity assay.

[2] = Microsomal stability in human liver microsomes; format: in vitro ADME
From the text: Microsomal stability in vitro in different biologic media and species is ascertained when screening compounds to evaluate the rate at which a compound undergoes metabolism.

[3] = test system: K562; assay: Inhibition of cancer cell proliferation, Alamar Blue assay (K562); format: cell-based; details: Homo sapiens
Method: (§1) The ability of the compounds described herein to kill or inhibit the proliferation of cancer cells was measured using the Alamar Blue assay using a 72 hours exposure. Results for different cancer cell lines are shown in, the Table 2 below (hematopoietic cell lines U937 and K562; MDA-MB-231 a breast cancer cell line; and NCI-H82 and Calu-6, two lung cancer cell lines): […]

[4] = test system: Calu-6; assay: Inhibition of cancer cell proliferation, Alamar Blue assay (Calu-6); format: cell-based; details: Homo sapiens
Method: as §1

[5] = test system: HCT-116; assay: Inhibition of cell proliferation (HCT-116); format: cell-based; details: Homo sapiens, Table 2B, Colon, average, read-out: IC50 Aver, HCT-116
[6] = Pharmacokinetics in Balbc mice; format: in vivo; details: Balbc male mice, IV or IP, 5 mg/kg or 10 mg/kg, 5% DMSO/90% Captisol solution
Method: The pharmacokinetic parameters for several compounds listed above were determined in mice following IV (intravenous) or IP (intraperitoneal) administration. Briefly, six Balbc male mice 7 to 8 weeks old were used for each study. A dose of 5 mg/kg or 10 mg/kg was administered using a 5% DMSO/90% Captisol (20% in water) solution for ACT-CK-050 or FFF for ACT-CK-154. Blood samples were collected at different intervals. Plasma samples were extracted and analyzed using an LC-MS/MS method. Results are represented in FIGS. 1 and 2.

[7] = test system: H209; assay: Inhibition of cell proliferation (H209); format: cell-based; details: Homo sapiens, NCI-H209; Table 2B; Lung; average; read-out: IC50 Aver, H209
[8] = test system: Caco2 cells; assay: Permeability in Caco2 cells; format: in vitro ADME; details: Caco2
From the text: (§2) The determination of the permeability in Caco2 cells is widely used in screening compounds to assess intestinal drug transport and predict absorption rates.

[9] = Permeability in Caco2 cells; format: in vitro ADME; details: human, Caco-2, Caco2 cells
From the text: as §2

[10] = test system: MDA-MB-231; assay: Inhibition of cancer cell proliferation, Alamar Blue assay (MDA-MB-231); format: cell-based; details: Homo sapiens
Method: as §1

[11] = test system: Jurkat; assay: Inhibition of cell proliferation (Jurkat); format: cell-based; details: Homo sapiens, Table 2B, Leukemia, average, read-out: IC50 Aver, Jurkat
[12] = test system: NCI-H82; assay: Inhibition of cancer cell proliferation, Alamar Blue assay (NCI-H82); format: cell-based; details: Homo sapiens
Method: as §1

[13] = test system: Hep G2; assay: Inhibition of cell proliferation (Hep G2); format: cell-based; details: Homo sapiens, HepG2; Table 2B; Liver; average; read-out: IC50 Aver, Hep G2
[14] = test system: Hela; assay: Inhibition of cell proliferation (Hela); format: cell-based; details: Homo sapiens, Table 2B, Cervical, average, read-out: IC50 Aver, Hela
[15] = test system: A431; assay: Inhibition of cell proliferation (A431); format: cell-based; details: Homo sapiens, A-431; Table 2B; epidermi; average; read-out: IC50 Aver, A431
[16] = test system: MKN-45; assay: Inhibition of cell proliferation (MKN-45); format: cell-based; details: Homo sapiens, Table 2B, Gastric, average, read-out: IC50 Aver, MKN-45
[17] = test system: NCI-H2122; assay: Inhibition of cell proliferation (NCI-H2122); format: cell-based; details: Homo sapiens, Table 2B, Lung, average, read-out: IC50 Aver, NCI-H2122
[18] = test system: Colo-205; assay: Inhibition of cell proliferation (Colo-205); format: cell-based; details: Homo sapiens, Table 2B, Colorectal, average, read-out: IC50 Aver, Colo-205
[19] = test system: DU145; assay: Inhibition of cell proliferation (DU145); format: cell-based; details: Homo sapiens, DU-145; Table 2B; Prostate; average; read-out: IC50 Aver, DU145
[20] = test system: U937; assay: Inhibition of cancer cell proliferation, Alamar Blue assay (U937); format: cell-based; details: Homo sapiens, U-937
Method: as §1

[21] = test system: HT-29; assay: Inhibition of cell proliferation (HT-29); format: cell-based; details: Homo sapiens, Table 2B, Colon, average, read-out: IC50 Aver, HT-29
[22] = test system: PC3; assay: Inhibition of cell proliferation (PC3); format: cell-based; details: Homo sapiens, PC-3; Table 2B; Prostate; average; read-out: IC50 Aver, PC3
[23] = comparison of A-B and B-A values

IC50 [1]: > 100000 nM
Compound: CCOc1ccc(-c2nnc(SCC(=O)NC3CC(C)(C)NC(C)(C)C3)[nH]2)cc1 [ACT-CK-170, 2-[5-(4-Ethoxy-phenyl)-4H-[1,2,4]triazol-3-ylsulfanyl]-N-(2,2,6,6-tetramethyl-piperidin-4-yl)-acetamide]

IC50 [1]: 50000 nM
Compound: CCOc1ccc(-c2nnc(SCC(=O)Nc3cccc(OC)c3)[nH]2)cc1 [ACT-CK-157, 2-[5-(4-Ethoxy-phenyl)-4H-[1,2,4]triazol-3-ylsulfanyl]-N-(3-methoxy-phenyl)-acetamide]

% Metabolized (mean) [2]: 99%
IC50 [1]: 30000 nM
Compound: CCOc1ccc(-c2nnc(SCC(=O)N(C)c3cc(C)cc(C)c3)[nH]2)cc1 [ACT-CK-153, N-(3,5-Dimethyl-phenyl)-2-[5-(4-ethoxy-phenyl)-4H-[1,2,4]triazol-3-ylsulfanyl]-N-methyl-acetamide]

IC50 [1]: 18000 nM
Compound: CCOc1ccc(-c2nnc(SCC(=O)Nc3cc(OC)cc(OC)c3)[nH]2)cc1 [ACT-CK-109, N-(3,5-Dimethoxy-phenyl)-2-[5-(4-ethoxy-phenyl)-4H-[1,2,4]triazol-3-ylsulfanyl]-acetamide]

IC50 ([3]; Table 2A, Alamar Blue, 72 hours exposure, read-out: IC50s K562): 40 nM
IC50 ([3]; Table 2B, Leukemia, average, read-out: IC50 Aver, K562): 43 nM
% Metabolized (mean) [2]: 99%
IC50 ([4]; Table 2A, Alamar Blue, 72 hours exposure, read-out: IC50s Calu-6): 60 nM
IC50 ([4]; Table 2B, Lung, average, read-out: IC50 Aver, Calu-6): 57 nM
IC50 [1]: 20000 nM
IC50 [5]: 523 nM
Clearance (in words) [6]: cleared too quickly
Plasma levels (in words) [6]: too low
IC50 [7]: 367 nM
Pgp substrate (in words) [8, 23]: not a Pgp substrate
active efflux (in words) [8, 23]: not actively effluxed out the cells
permeability properties (in words) ([8]; high permeability determined as Papp>10×10^−6 cm/s): high permeability
Papp A→B ([9]; apical to basal): 46.1 ×10⁻⁶ cm/s
Papp B→A ([9]; basal to apical): 16.2 ×10⁻⁶ cm/s
IC50 ([10]; Table 2A, Alamar Blue, 72 hours exposure, read-out: IC50s MDA-MB231): 18500 nM
IC50 ([10]; Table 2B, Breast, average, read-out: IC50 Aver, MDA-MB-231): 18500 nM
IC50 [11]: 10400 nM
IC50 ([12]; Table 2A, Alamar Blue, 72 hours exposure, read-out: IC50s NCI-H82): 90 nM
IC50 ([12]; Table 2B, Lung, average, read-out: IC50 Aver, NCI-H82): 96 nM
IC50 [14]: 22 nM
IC50 [15]: 117 nM
IC50 [16]: 47 nM
IC50 [17]: 173 nM
IC50 [18]: 240 nM
IC50 [19]: 597 nM
IC50 ([20]; Table 2A, Alamar Blue, 72 hours exposure, read-out: IC50s U937): 60 nM
IC50 ([20]; Table 2B, lymphoma, average, read-out: IC50 Aver, U937): 63 nM
IC50 [21]: 89700 nM
IC50 [22]: 240 nM
Compound: CCOc1ccc(-c2nnc(SCC(=O)Nc3cc(C)cc(C)c3)[nH]2)cc1 [ACT-CK-050, N-(3,5-Dimethyl-phenyl)-2-[5-(4-ethoxy-phenyl)-4H-[1,2,4]triazol-3-ylsulfanyl]-acetamide]
IC50 [13]: 163 nM
